In US9789072B2, “Therapeutic agents for use in the propylaxis and/or treatment of hyperkinetic movement disorders” (SOM INNOVATION BIOTECH, S.L., priority 2013, dated 2017):
Read-outs that look alike come from different tables or passages of the source.

Molecular target: T1, VMAT2 (Rattus norvegicus, UniProt Q01827)
T1 construct: the VMAT2 present in isolated cerebral cortical vesicles; from tissue; host or cells: rat cerebral cortex, synaptic vesicles purified by differential centrifugation
Assay: VMAT2 functional assay ([3H]-dopamine uptake into isolated vesicles)
Assay type: biochemical
Details: rat cortical vesicles, [3H]-dopamine 30 nM, 30 min pre-incubation, 15 min uptake, room temperature
Experimental: VMAT2 Functional Assay determines the interaction between the compounds of the present invention and the VMAT2 present in isolated cerebral cortical vesicles.
Transporter Source: Rat cortical vesicles
Buffers: 100 mM potassium tartrate, 1.7 mM ascorbic acid, 0.05 mM EGTA, 0.1 mM EDTA, 2 mM Magnesium-ATP and 25 mM HEPES.
RadioLigand: • Monoamine: [3H]-Dopamine • Final ligand concentration: 30 nM
Vmax (transport rate): 1800 fmol/mg tissue/min
Positive reference-control: • Reserpine • Concentration: 10 μM
(1) Rat cortical vesicles were purified using differential centrifugation, and the vesicles obtained were diluted in the assay buffer and pre-incubated with the positive-reference-control, the comparative sample or a compound of the invention for 30 minutes at room temperature.
(2) Uptake begins with the addition of [3H]-dopamine and the mixture is allowed to incubate for 15 minutes at room temperature.
(3) After that time, the reaction was stopped by vacuum filtration, and the amount of radioactivity of the radiolabeled [3H]-dopamine trapped onto the filters was determined.
(4) The radioactivity of the [3H]-dopamine trapped was determined using liquid scintillation spectrophotometry (Beckman and Perkin Elmer). The amount of radioactivity obtained with the comparative sample or a compound of the invention was compared with the amount of radioactivity obtained with the positive-reference control (reserpine).
The IC50 value is converted to an absolute inhibition constant Ki using the Cheng-Prusoff equation. Two separate independent experiments were performed.

[1] = Experiment 1, read-out: IC50 (nM) Experiment 1

T1 sequence (Q01827 whole entry): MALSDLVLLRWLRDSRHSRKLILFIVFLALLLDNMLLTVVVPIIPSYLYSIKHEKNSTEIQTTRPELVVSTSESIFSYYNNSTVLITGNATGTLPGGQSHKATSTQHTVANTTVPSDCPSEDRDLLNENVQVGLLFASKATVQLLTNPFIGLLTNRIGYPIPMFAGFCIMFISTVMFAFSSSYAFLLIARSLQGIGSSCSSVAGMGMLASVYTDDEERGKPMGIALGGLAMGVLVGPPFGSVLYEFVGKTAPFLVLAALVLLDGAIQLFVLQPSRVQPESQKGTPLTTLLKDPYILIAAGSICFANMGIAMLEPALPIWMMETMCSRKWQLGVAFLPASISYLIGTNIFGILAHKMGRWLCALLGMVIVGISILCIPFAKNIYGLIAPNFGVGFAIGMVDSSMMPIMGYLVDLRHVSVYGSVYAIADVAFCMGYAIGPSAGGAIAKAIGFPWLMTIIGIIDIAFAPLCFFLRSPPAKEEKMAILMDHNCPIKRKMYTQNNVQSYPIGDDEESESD

IC50 [1] [nM] | IC50 (Experiment 2, read-out: IC50 (nM) Experiment 2) [nM] | SMILES
42.8 | 63 | COc1ccc(CCNCC(O)COc2cccc(C)c2)cc1OC (racemic) [Bevantolol (IA), (RS)-[2-(3,4-dimethoxyphenyl)ethyl][2-hydroxy-3-(3-methylphenoxy)propyl]amine]
44.6 |  | C[C@@H](NCCCc1cccc(C(F)(F)F)c1)c1cccc2ccccc12 [Cinacalcet (IB)]

SMILES | IC50 [1] [nM] | IC50 (Experiment 2, read-out: IC50 (nM) Experiment 2) [nM]
CC(COc1ccccc1)N(CCCl)Cc1ccccc1 (racemic) [Phenoxybenzamine (IC), (RS)—N-benzil-N-(2-chloroetyl)-1-phenoxy-propan-2-amine] | 58.1 | 
